Measurements taken from patent US12569498B2, “Methods and compositions for the prevention and treatment of ischemia reperfusion injury and infection” (CHILDREN'S NATIONAL MEDICAL CENTER, priority 2019, dated 2026).
“Also recorded” adds a separate entry of the source.

Key:
[1] = cited from earlier work
[2] = Warm ischemia of the hindlimb (flow cytometry, quantitative PCR, trichrome staining); assay type: in vivo; conditions: vs untreated controls
[3] = test system: oxidative stress within the testis; assay: Myeloperoxidase activity and reduced glutathione levels in testis after testicular torsion; assay type: in vivo, CD1 mice; conditions: varenicline 1 hour after onset of torsion, vs untreated controls; for reduced glutathione (GSH) levels in testis: 48 hours following reperfusion, P≤0.0742
Experimental: Mice underwent testicular torsion as previously described (Lysiak 2001). Briefly, mice were anesthetized with isoflurane over a heating pad. The right testis was delivered through a low scrotal incision and rotated counterclockwise 720 degrees to induce ischemia for 2 hours. […] All animals were injected with long-acting buprenorphine (0.1 mg/kg) for long-term pain control prior to being recovered from anesthesia. […] Mice kept for 30 days after surgery were weighed on a weekly basis.
(§1) Cytisine (Sigma-Aldrich, St. Louis, MO) was administered intraperitoneally at a dose of 0.1 μg/gram either 1 hour before torsion or 1 hour after torsion (1 hour prior to detorsion). Varenicline ([…]) was administered as an intraperitoneal injection one hour after the onset of torsion and then continued every 12 hours for a total of 4 doses.
Tissues were harvested and stored at −80° C. until use. Glutathione reductase activity was measured by use of glutathione reductase assay Kit (Sigma-Aldrich, St. Louis, MO). Testis tissue was homogenized in 5% sulfosalicylic Acid (SSA) solution. Samples were then centrifuged and supernatant was reserved. Supernatants were added to a reaction mixture containing 95 mM potassium phosphate buffer, pH 7.0, 0.95 mM EDTA, 0.038 mg/mL NADPH, 0.031 mg/mL DTNB, 0.115 units/mL glutathione reductase, and 0.24% SSA. Absorbance at 412 nm was recorded. Glutathione results were expressed as nm GSH per mL sample.
Following an ischemic event, the initial inflammatory response is characterized by an increase in oxidative stress and production of reactive oxygen species. In order to determine the effect of cytisine treatment on the level of reactive oxygen species (ROS) following testicular torsion, testicular levels of myeloperoxidase (MPO), a marker of neutrophil activation, and reduced glutathione (GSH) levels (an indirect measure of oxidative stress within the testis) were measured.

[4] = test system: CD45+ immune cells in the torsed testis; assay: Flow cytometry of CD45+ immune cell infiltrate in testis after testicular torsion; assay type: in vivo, CD1 mice; conditions: varenicline 1 grm/kg i.p. 1 hour after onset of torsion; 48 hours after reperfusion; P≤0.0001
Experimental: (§2) Unilateral testicular torsion was induced in mature male CD1 mice by rotating the right testicle 720 degrees for 2 hours. Treatment with cytisine or varenicline was initiated one hour prior or one hour after the creation of testicular torsion. Testes were harvested 18 hours and 30 days following reperfusion. The acute inflammatory response was quantified with FACS analysis, […], reduced glutathione levels and quantification of the expression of IRI markers. Long term (30 day) outcomes were assessed by histologic evaluation, quantification of the expression of pro-fibrotic genes and measurement of testicular weight.
Mice underwent testicular torsion as previously described (Lysiak 2001). Briefly, mice were anesthetized with isoflurane over a heating pad. […]
Eighteen hours after reperfusion of the testis in the cytisine group and 48 hours after reperfusion in the varenicline group, bilateral testes were harvested, homogenized and digested with digestion solution containing 0.5% FBS, 20 mM HEPES, RPMI Medium, 0.057 U/ml DNase I, 1 mg/ml collagenase b. Cells were washed, counted with a hemocytometer and 1 million then diluted to 1 million cells per mL. […] For each sample 300,000 live cells were counted using BD FACSCalibur (BD Biosciences, San Jose, CA) and analyzed with FlowJo 9.0 software (TreeStar, Ashland, OR).

[5] = Masson trichrome staining and ImageJ quantification of collagen in testis 30 days after torsion; assay type: in vivo, CD1 mice; conditions: 30 days following torsion, vs untreated, cytisine p<0.01, varenicline p<0.0001
Experimental: (§3) Mice underwent testicular torsion as previously described (Lysiak 2001). Briefly, mice were anesthetized with isoflurane over a heating pad. The right testis was delivered through a low scrotal incision and rotated counterclockwise 720 degrees to induce ischemia for 2 hours. […] All animals were injected with long-acting buprenorphine (0.1 mg/kg) for long-term pain control prior to being recovered from anesthesia. Mice were euthanized either 18 hours or 30 days following torsion. Mice kept for 30 days after surgery were weighed on a weekly basis.
as §1
Testis tissue was harvested and stored in 70% ethanol. Fixation, embedding, sectioning, and staining were performed by the research pathology core at George Washington University. Sections were cut at a thickness of […]. Tissues were stained for H&E or Masson trichrome. Photographs were scanned at 20× resolution with Olympus VS120 virtual slide microscope system. TIF images were analyzed with ImageJ Fiji software as previously described (Caetano, Fronza et al. 2016). The color deconvolution plugin was used to perform ImageJ analysis on an area measuring 3000 square pixels. Automatic thresholding was performed. The amount of collagen in each area is expressed as the percentage of blue pixels in the image area taken as an average of 3 non-overlapping measurements.

[6] = Testis weight vs contralateral testis 30 days after torsion (testicular atrophy); assay type: in vivo, CD1 mice; conditions: drug given an hour after the onset of torsion; 30 days after reperfusion; vs untreated
Experimental: as §2, §3, §1
The degree of testicular atrophy was determined by comparing the weight of the torsed testis to the contralateral control testis 30 days after reperfusion.

[7] = adolescents aged 12-16, of 75 patients (Faessel 2009)

c1cnc2cc3c(cc2n1)C1CNCC3C1 [varenicline, 7,8,9, 10-tetrahydro-6, 10-methano-6H-pyrazino[2,3-h][3]benzazepine]
incidence of neurocognitive side effects ([1]; adolescents aged 12-16 (Faessel 2009)): 3 out of 75
abnormal dreams [1, 7]: 2 patients
transient mild anger [1, 7]: 1 patient
infiltration of leukocytes (flow cytometry) ([2]; 24 hours after warm ischemia of the hindlimb, P≤0.01): decreased infiltration of leukocytes
expression of pro-fibrotic genes (quantitative PCR) ([2]; 7 days after reperfusion of the limb): decreased expression of pro-fibrotic genes
collagen deposition in muscle fibers (trichrome staining) ([2]; 14 days following limb ischemia, P≤0.005): significant decrease in collagen deposition
reduced glutathione (GSH) levels in testis [3]: increased levels of reduced glutathione (GSH)
reduced glutathione (GSH) levels in testis ([3]; listed as Varenicline): preserved reduced glutathione levels
myeloperoxidase (MPO) activity in testis ([3]; P≤0.0013): decreased levels of MPO activity; also recorded: significantly decreased
acute immune cell (leukocyte) infiltrate in testis [4]: decreased leukocyte infiltrate; also recorded: reduction in the acute immune cell infiltrate
collagen content of testis (trichrome staining, percentage of collagen) [5]: untreated group had significantly higher collagen content; also recorded: decreased histologic and genetic markers of testicular fibrosis
collagen content of testis (trichrome staining, percentage of collagen) ([5]; listed as Varenicline): significantly higher percentage of collagen in the untreated animals
testicular atrophy (weight of torsed testis vs contralateral control testis) [6]: limited long term testicular atrophy; also recorded: preserved testicular weight
